Measurements taken from paper PMC7667534, “Calixarbutin: A Novel Calixarene-based Potential Water-soluble Anti-tyrosinase Agent with High Anti-melanoma Activity” (Iranian Journal of Pharmaceutical Research : IJPR, 2020).

How the values were obtained:
[1] = target: Mushroom tyrosinase; test: DOPA-chrome assay with L-DOPA ([…]), mushroom tyrosinase […] U/mL, absorbance at […] nm; reference inhibitor measured by the authors; format: biochemical; conditions: read-out: Anti-tyrosinase activity (IC50)
[2] = target: Mushroom tyrosinase; test: DOPA-chrome assay with L-DOPA ([…]), mushroom tyrosinase […] U/mL, absorbance at […] nm; format: biochemical; conditions: read-out: Anti-tyrosinase activity (IC50)

IC50 [1]	IC50 [2]	Compound
168 ± 7 µM		OC[C@H]1O[C@@H](Oc2ccc(O)cc2)[C@H](O)[C@@H](O)[C@@H]1O [Arbutin]
	26 ± 1 µM	OC[C@H]1O[C@@H](Oc2c3cc(O)cc2Cc2cc(O)cc(c2O[C@@H]2O[C@H](CO)[C@@H](O)[C@H](O)[C@H]2O)Cc2cc(O)cc(c2O[C@@H]2O[C@H](CO)[C@@H](O)[C@H](O)[C@H]2O)Cc2cc(O)cc(c2O[C@@H]2O[C@H](CO)[C@@H](O)[C@H](O)[C@H]2O)C3)[C@H](O)[C@@H](O)[C@@H]1O [compound 4]
